“Also recorded” adds a separate entry of the source.

Data set [1] concerns CART19 cells. The data set is described as follows: CART19 proliferation in co-culture with irradiated JeKo-1 cells (absolute CD3+ T cell counts by flow cytometry). The format is cell-based, human. Conditions: for toxicity to CART19 cells: in vitro, concentrations up to 10 μM. As for the experimental part:
CART19 proliferation in the presence of vecabrutinib was evaluated. CART19 cells were cocultured with irradiated JeKo-1 tumor cells at a 1:1 ratio for 24 hours in the presence of 1 μM or 10 μM vecabrutinib. Control co-culture was treated with DMSO vehicle only. Absolute CD3+ T cell counts were measured by flow cytometry.
CART19 cells were cocultured with irradiated JeKo-1 tumor cells at a 1:1 ratio for 24 hours in the presence of 1 μM or 10 μM. Control co-culture was treated with DMSO only. Absolute CD3+ T cell counts were measured by flow cytometry.
In general terms: A flow cytometer gives signals particle by particle.

Data set [2] deals with CLL patients expressing BTK^C481S. Conditions: Allan, et al (2019); cited from earlier work.
For data set [3], the system named is CART19 cells. In words: CART19 cell degranulation (CD107α by flow cytometry) in co-culture with irradiated JeKo-1 cells. It is filed as cell-based, human. The settings on record: 1 μM or 10 μM, 1:1 ratio, 4 hours; FIG. 3A. The protocol:
CART19 cells were cocultured with irradiated JeKo-1 tumor cells at a 1:1 ratio for 4 hours in the presence of 1 μM or 10 μM vecabrutinib. […] Untransduced T cell/JeKo-1 co-culture treated with 1 μM or 10 μM vecabrutinib were used as a negative control as the non-antigen-specific T cells were not expected to undergo degranulation in the presence of JeKo-1 target cells. CD107α was used as a marker to quantify degranulation, as this marker becomes part of the cellular membrane and accessible to surface staining with CD107α-specific antibody in degranulating cells. Following coculture, cells were fixed, permeabilized, attained and analyzed for CD107 levels by flow cytometry.

For data set [4], the system named is pro-inflammatory cytokines in serum. In words: Phase 1 clinical trial, serum cytokine panel in patients with B cell malignancies. The format is in vivo, human. Conditions: oral 20.5-410 mg twice daily, 4 weeks post-treatment vs pretreatment. The protocol: Human cancer patients having B cell malignancies were administered vecabrutinib in a Phase 1 clinical trial and a cytokine panel was used to evaluate cytokine levels in serum at 4 weeks following administration. Briefly, patients in the clinical trial had Chronic Lymphocytic Leukemia (CLL)/Small Lymphocytic Lymphoma (SLL) or Non Hodgkin's lymphoma (NHL) and had failed prior standard of care therapies. NHL indications included lymphoplasmacytoid lymphoma/Waldenstrom's macroglobulinemia (LPL/WM), mantle cell lymphoma (MCL), marginal zone lymphoma (MZL), diffuse large B-cell lymphoma of the activated B-cell subtype (DLBCL-ABC), and follicular lymphoma (FL). A group of 39 patients were orally administered a dose of 20.5 mg, 41 mg, 82 mg, 164 mg, 246 mg, 328 mg, or 410 mg of vecabrutinib as a capsule twice daily. Serum samples were collected from the patients prior to the start of treatment as 4-weeks post-treatment and analyzed by 38-multiplex (Millipore).

Data set [5] has as its target wild-type BTK (Homo sapiens, UniProt Q06187). The settings on record: Aslan, et al (2021); cited from earlier work.
The subject of data set [6] is mutant BTK. The settings on record: Aslan, et al (2021); cited from earlier work.
Data set [7] has as its system JeKo-1 lymphoma xenograft. The data set is described as follows: JeKo-1 lymphoma xenograft mouse model with CART19 cells. The settings on record: 50 mg/kg oral gavage twice daily for 4 weeks, in combination with CART19. As for the experimental part: The impact of vecabrutinib on CART19 cell anti-tumor effects was evaluated using a JeKo-1 lymphoma xenograft mouse model. To establish the mouse model, NSG mice were inoculated with 1×10^6 luciferase^+ JeKo-1 tumor cells by intravenous injection at day −14. […] Treatment groups received either CART cells with DMSO vehicle or CART cells in combination with 50 mg/kg vecabrutinib. The control group received untransduced T cells with DMSO vehicle. Administration of vecabrutinib or vehicle commenced one day prior to CART19 administration (i.e., day −1), and was given by oral gavage. Untransduced or CART19 were infused by intravenous administration on day 0 at a dose of 1×10^6 cells per animal. Vecabrutinib and vehicle were administered by oral gavage twice daily over a period of 4 weeks. Mice were imaged weekly by IVIS to assess tumor burden. Blood samples were collected from the mice on a weekly basis and the level of circulating CART19 cells was measured by flow cytometry. Mouse weight was also measured on a weekly basis as a measure of treatment toxicity.

Data set [8] deals with CART19 cells. In words: CART19 cell cytokine production in co-culture with JeKo-1 cells (38-multiplex of supernatants). The format is cell-based, human. Conditions: 1 μM or 10 μM, 1:1 ratio. As for the experimental part:
The effect of vecabrutinib treatment on CART19 cell cytokine production was also evaluated. CART19 cells were cocultured with irradiated JeKo-1 tumor cells at a 1:1 ratio for 3 days in the presence of 1 μM or 10 μM vecabrutinib. […] Untransduced T cell/JeKo-1 coculture treated with 1 μM or 10 μM vecabrutinib were used as a negative control as the non-antigen-specific T cells were not expected to undergo activation and cytokine production in the presence of JeKo-1 target cells. Supernatants were harvested and the levels of multiple cytokines and chemokines were analyzed with 38-multiplex (Millipore).

In data set [9] the test system is CD19-expressing JeKo-1 tumor cells. The data set is described as follows: CART19-mediated killing of JeKo-1 tumor cells in in vitro co-culture (bioluminescence). It is filed as cell-based, human. The protocol: CART19 cells and JeKo-1 tumor cells were cultured at a 1:1 ratio for 24 hours in the presence of 1 μM or 10 μM vecabrutinib. […] Control of untransduced (UTD) T cell/JeKo-1 co-culture in the presence of 1 μM or 10 μM vecabrutinib was used to determine any tumor cell killing induced by vecabrutinib in the absence of CART19 cells. The percentage of tumor cell killing was measured using bioluminescence imaging, with samples treated with D-luciferin prior to imaging. […] Control co-culture was treated with DMSO only. The percentage of tumor cell killing was measured as described above.

Sequence of wild-type BTK (Q06187 whole entry): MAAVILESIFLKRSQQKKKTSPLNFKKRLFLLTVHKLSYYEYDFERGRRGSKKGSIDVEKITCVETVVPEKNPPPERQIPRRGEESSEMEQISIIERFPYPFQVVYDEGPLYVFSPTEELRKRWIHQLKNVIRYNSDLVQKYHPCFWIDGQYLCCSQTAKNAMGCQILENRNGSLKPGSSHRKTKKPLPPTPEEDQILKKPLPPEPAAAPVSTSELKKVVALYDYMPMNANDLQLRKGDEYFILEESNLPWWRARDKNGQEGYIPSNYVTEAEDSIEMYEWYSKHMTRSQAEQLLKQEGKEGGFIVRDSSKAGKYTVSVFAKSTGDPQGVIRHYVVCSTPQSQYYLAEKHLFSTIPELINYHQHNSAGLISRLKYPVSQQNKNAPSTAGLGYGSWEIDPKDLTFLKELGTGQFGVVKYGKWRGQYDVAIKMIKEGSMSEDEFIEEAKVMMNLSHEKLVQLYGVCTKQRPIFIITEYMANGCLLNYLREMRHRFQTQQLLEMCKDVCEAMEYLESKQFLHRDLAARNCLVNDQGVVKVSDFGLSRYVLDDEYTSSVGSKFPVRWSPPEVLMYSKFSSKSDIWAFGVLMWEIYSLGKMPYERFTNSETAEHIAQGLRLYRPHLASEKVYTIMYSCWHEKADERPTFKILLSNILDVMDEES

For the molecule `C=CC(=O)N1CCC[C@@H](n2nc(-c3ccc(Oc4ccccc4)cc3)c3c(N)ncnc32)C1` [ibrutinib, reference compound], the “toxicity to CART19 cells” value in data set [1] is given as “toxic; also recorded: dose-dependent toxicity”.

In the case of `NC(=O)[C@H]1CCN(c2ncnc(N)c2F)C[C@@H]1N1CCC[C@@H](Nc2cc(Cl)cc(C(F)(F)F)c2)C1=O` [vecabrutinib, (3R,3′R,4′S)-1′-(6-amino-5-fluoropyrimidin-4-yl)-3-((3-chloro-5-(trifluoromethyl)phenyl)amino)-2-oxo-[1,3′-bipiperidine]-4′-carboxamide], in data set [2], the “efficacy in CLL patients expressing BTK^C481S” value was “has efficacy”. The “CART19 degranulation (CD107α)” value in data set [3] was “did not impair”. The “serum level of IP-10” value in [4] (FIG. 6A) was “significantly decreased”. In data set [4] (FIG. 6B), the “serum level of MIP-1β” value is on record as “significantly decreased”. In data set [4] (FIG. 6C), the “serum level of TNFα” value is listed as “significantly decreased”. For the same molecule, in data set [5], the “inhibitory activity against wild-type BTK” value is “maintain inhibitory activity”. Also, the “CART proliferation compared to the DMSO control” value in data set [1] (1 μM or 10 μM, 1:1 ratio, 24 hours, FIG. 2A) is “comparable”. Further, the “CART19 proliferation compared to control” value in [1] (10 μM, 1:1 ratio, 24 hours, FIG. 2A/2B) is “increased”. Further, the “toxicity to CART19 cells” value in data set [1] is listed as “well-tolerated; also recorded: not toxic”. Besides, the “inhibitory activity against mutant BTK” value in [6] is on record as “maintain inhibitory activity”. Also, the “antitumor activity (tumor burden by IVIS) compared to CART19 alone” value in [7] (FIG. 4A) was “sustained antitumor activity”. Further, the “CART19 proliferation (circulating CART19 cells by flow cytometry)” value in data set [7] (FIG. 4B) is listed as “increased”. Moreover, the IL-6 in supernatant entry in [8] (FIG. 3B) is “downregulation”. In [8] (FIG. 3C), the IL-10 in supernatant result is “downregulation”. For the same molecule, the MIP-1β in supernatant result in data set [8] (FIG. 3D) is on record as “downregulation”. Further, in data set [9] (0.625.1 CART19 to tumor cell ratio, 24 hours, normalized to BTK inhibitor only, FIG. 1B), the “CART19-mediated killing of Jeko-1 lymphoma cells as compared to ibrutinib” value is “significantly potentiated”. Besides, the “killing of CD19-expressing JeKo-1 tumor cells” value in [9] (CART19:JeKo-1 1:1, 24 hours, 1 μM or 10 μM, vs DMSO control, FIG. 1A) was “significantly increased”.

(Values after patent US20260083848A1, “COMBINATION OF CAR T-CELL THERAPY WITH BTK INHIBITORS AND METHODS OF USE THEREOF” (priority 2021, published 2026).)
